Patent publication US20250009914A1, “METHOD FOR SYNTHESIZING HYALURONIC ACID NANOPARTICLES, AND HYALURONIC ACID NANOPARTICLES PREPARED BY METHOD” (Kyungpook National University Industry-Academic Cooperation …, priority 2019, published 2025)

Tests used:
[1] = system: HDF-neo, Human primary dermal fibroblast-neonatal; test: Fibroblast proliferation, WST-8 assay (Ez-cytox); format: cell-based; settings: 3 day, serum free condition, FIG. 26
Description: Next, the fibroblast proliferation effect was evaluated according to a conventional known method.
Evaluation method: WST-8 assay (Ez-cytox) and Procollagen ELISA (Takara #MK101)

[2] = system: B16F10 mouse melanoma cell line; test: Melanin contents assay; format: cell-based; settings: B16F10, 48 hours; substance left 24 hours at 50° C. compared with −20° C., FIG. 23
Description: Whitening efficacy evaluation was measured by melanin contents assay and cellular tyrosinase activity assay after treating each experimental substance to a B16F10 mouse melanoma cell line and incubating the each experimental substance for 48 hours. As a control, ascorbic acid, ascorbic acid-2-glucoside (AA2G) and HAI (Oligo-HA) used in Example 2 were used. The substances used in the experiment were all left for 24 hours at −20° C. or 50° C. and then used in the experiment.

cellular tyrosinase = target: T1, cellular tyrosinase (Mus musculus, UniProt P11344); test: Cellular tyrosinase activity assay; format: cell-based; settings: B16F10, 48 hours; substance left 24 hours at 50° C. compared with −20° C., FIG. 23
T1 construct: Cell line: B16F10 mouse melanoma (Passage 10), 6 well plate; endogenous in cells; host or cells: B16F10 mouse melanoma cells
T1 sequence (P11344 19-533): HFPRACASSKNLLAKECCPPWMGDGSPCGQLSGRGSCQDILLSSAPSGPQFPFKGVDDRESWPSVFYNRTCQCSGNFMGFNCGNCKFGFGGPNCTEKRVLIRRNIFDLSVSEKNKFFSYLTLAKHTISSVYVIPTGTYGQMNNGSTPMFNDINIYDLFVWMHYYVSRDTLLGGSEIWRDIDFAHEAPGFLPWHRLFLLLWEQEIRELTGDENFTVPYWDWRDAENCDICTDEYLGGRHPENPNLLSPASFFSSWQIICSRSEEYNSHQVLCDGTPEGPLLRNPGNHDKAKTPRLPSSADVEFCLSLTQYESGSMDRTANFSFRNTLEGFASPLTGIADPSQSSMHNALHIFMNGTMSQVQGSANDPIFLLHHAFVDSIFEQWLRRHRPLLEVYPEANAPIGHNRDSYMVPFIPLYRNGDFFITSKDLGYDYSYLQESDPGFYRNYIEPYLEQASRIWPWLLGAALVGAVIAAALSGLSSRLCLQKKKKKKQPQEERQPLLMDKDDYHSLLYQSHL
Description: Cell line: B16F10 mouse melanoma (Passage 10), 6 well plate, 4×10^5 cells/well
Evaluation method: Cellular tyrosinase activity assay
Experimental substance treatment time: 48 hours
Experimental substance treatment concentration: See FIG. 25

[3] = Thermal stability evaluation by HPLC; format: physicochemical; settings: aqueous solution 100 uM, 50° C. for 48 hours

Row | Compound | fibroblast proliferation promoting efficacy [1] | melanin production (whitening efficacy) [2] | tyrosinase activity (whitening efficacy) (cellular tyrosinase) | oxidation over time [3]
1 | CCCCCCCCCCCCCCCC(=O)OCC(O)C1OC(=O)C(OP(=O)(O)O)=C1O (stereo not drawn) [APPS] | almost not shown |  |  | 
2 | O=C1O[C@H]([C@@H](O)CO)C(O)=C1O[C@H]1O[C@H](CO)[C@@H](O)[C@H](O)[C@H]1O [AA2G, ascorbic acid-2-glucoside] | almost not shown |  |  | 
3 | O=C1O[C@H]([C@@H](O)CO)C(O)=C1O [ascorbic acid] | almost not shown | whitening efficacy disappeared | whitening efficacy disappeared | not oxidized over time
